Reference: patent EP1258527A1, “Membrane-associated shingomyelinase derived from bovine brain, isolation method therfor and anti-sphingomyelinase monocional antibody” (SK Corporation, priority 2001, dated 2002)
“Also recorded” adds a separate entry of the source. Where two headings read alike, the source gives them in different places.

Legend:
N-mSMase ε = test: N-mSMase activity assay: influence of cations, reducing agents and surfactants on enzyme activity; format: biochemical, bovine; settings: for influence of agents similar to glutathione on N-mSMase ε activity: 1, 3, 5 or 10 mM; for inhibition of activity at 10 mM: glutathione concentration of 10 mM; for influence of reducing agents on N-mSMase ε activity: 0.5-10 mM, relative to control without reducing agent
Experimental: (§1) After being dried with a nitrogen stream, [N-methyl-^14 C]sphingomyelin (choline residue labeled with ^14C) was suspended in ethanol. 10 µl of a sample was mixed with 100 µl of a reaction solution (10 mM MgSO4, 50 µM [N-methyl-^14 C]sphingomyelin (c.a. 60,000 cpm), 2 mM sodium deoxycholate, 100 mM Tris-HCl (pH 7.0)) and incubated at 37 °C for 30 min. Addition of 320 µl of a mixture of chloroform/methanol (1:1 volume ratio) and 30 µl of 2N hydrochloride stopped the reaction. After vortexing and centrifuging the resulting mixture at 10,000xg, 200 µl of the aqueous layer was mixed with 2.5 ml of a scintillation cocktail, such as that manufactured by Packard Instrument Co., U.S.A., identified as "Insta gel-XF", followed by measuring the radioactivity with the aid of a Packard Tricarb liquid β-scintillation counter.
(§2) Separately, the same Lineweaver-Burk analysis was carried out, but in the presence of 0.4, 1.0 and 2.0 mM sodium deoxycholate.
In order to examine the dependency of N-mSMase ε activity on Mg^2+, Fraction B obtained in Step 6 of Example 1 was desalted by being applied to a PD-10 column (Sephadex G-25, Pharmacia Biotechnology Co., Sweden). For use, the column was equilibrated twice with distilled water, in advance. The desalted protein fraction (corresponding to protein 10 ng) was measured for N-mSMase ε activity in the presence of 1, 5, 10 and 25 mM of MgCl2 in the manner described in Experimental Example 1.
An examination was made of the influence of other cations, such as Ca^2+, Fe^3+, Fe^2+, Zn^2+, Cu^2+ and […] on the activity of N-mSMase ε. To a solution containing the desalted protein fraction (corresponding to protein 10 ng) obtained in C and 5 mM MgCl2, CaCl2, FeCl3, FeCl2, ZnCl2 or CuCl2 was added to yield a final concentration of 0.01, 0.02, 0.05, 0.1, 0.25 or 0.5 mM, followed by the measurement of N-mSMase ε activity in accordance with the procedure of Experimental Example 1.
After the addition of 10 µl of [N-methyl-^14C]sphingomyelin, the N-mSMase activity was measured according to the procedure of Experimental Example 1. For comparison, a Tris-HCl buffer containing no reducing agents was used as a control. The N-mSMase ε activity influenced by the reducing agents was expressed as a percentage relative to the control.
After being treated with 1, 3, 5 or 10 mM of GSSG, cystein, cystein-glycine or γ-glutaric acid-cystein, the activity of N-mSMase ε was measured in the same manner.
Sodium deoxycholate and Triton X-100 were selected as surfactants to be tested. The protein fraction obtained in C (corresponding to 10 ng of protein) was measured for N-mSMase ε activity in reaction solutions containing 0.5, 1, 2 and 5 mM of sodium deoxycholate, respectively, in accordance with the procedure of Experimental Example 1. In the case of Triton X-100, it was prepared at concentrations of 0.05, 0.01, 0.5 and 0.1 %.

[1] = tested on: partially purified N-mSMase; settings: partially purified rat brain N-mSMase (Liu et al.); cited from earlier work
[2] = tested on: N-mSMase ε, membrane-associated, Mg^2+-dependent, neutral pH optimum sphingomyelinase (60 kDa) from bovine brain; test: Lineweaver-Burk kinetic analysis (N-mSMase activity assay); format: biochemical
Experimental: as §1
The N-mSMase ε prepared in Step 6 of Example 1 was subjected to Lineweaver-Burk analysis. In this regard, enzyme N-mSMase ε was used at amounts of 10 ng or less with the substrate sphingomyelin varying, in concentration, from 6.25 to 100 µM.
as §2

[3] = cation chloride added at 0.01-0.5 mM in the presence of 5 mM MgCl2, read-out: IC50 (inhibition of enzyme activity, hydrolysis of sphingomyelin)

Compound: N[C@@H](CS)C(=O)O [cystein]
- influence of agents similar to glutathione on N-mSMase ε activity (N-mSMase ε): inhibited; also recorded: reduction in the activity

Compound: [Ca+2].[Cl-].[Cl-] [Ca^2+, CaCl2]
- influence on the activity of N-mSMase ε (N-mSMase ε; concentration of 0.5 mM or less, 5 mM MgCl2): no influence

Compound: N[C@@H](CCC(=O)N[C@@H](CS)C(=O)NCC(=O)O)C(=O)O [glutathione]
- IC50 (N-mSMase ε; glutathione 0.5-10 mM, preincubation 37 °C 10 min, read-out: IC50 (inhibition of sphingomyelinase activity)): 8000 µM
- inhibition of activity at 10 mM (N-mSMase ε): completely inhibited
- inhibition of activity at 10 mM (N-mSMase ε; listed as Glutathione): fully inhibited
- change of activity with concentration up to 3 mM (N-mSMase ε; glutathione up to 3 mM): increases

Compound: [Cl][Cu][Cl] [Cu^2+, CuCl2]
- IC50 (N-mSMase ε; [3]): 28 µM

Compound: phosphatidylserine
- effect on activity of partially purified N-mSMase [1]: promoted

Compound: OCCS [2-mercaptoethanol]
- influence of reducing agents on N-mSMase ε activity (N-mSMase ε): not inhibited; also recorded: neither dithiothreitol nor 2-mercaptoethanol has any influence

Compound: O[C@H](CS)[C@H](O)CS (racemic) [DTT, dithiothreitol]
- effect on activity of partially purified N-mSMase [1]: promoted
- influence of reducing agents on N-mSMase ε activity (N-mSMase ε): not inhibited
- influence of reducing agents on N-mSMase ε activity (N-mSMase ε; listed as dithiothreitol): neither dithiothreitol nor 2-mercaptoethanol has any influence

Compound: [Cl-].[Cl-].[Mg+2] [Mg^2+, MgCl2]
- dependency of N-mSMase ε activity on Mg^2+ (N-mSMase ε; 1, 5, 10 and 25 mM MgCl2, desalted fraction): Mg^2+-concentration dependent

Compound: oxidized glutathione [GSSG]
- influence of agents similar to glutathione on N-mSMase ε activity (N-mSMase ε): inhibited; also recorded: reduction in the activity

Compound: [Cl-].[Cl-].[Zn+2] [Zn^2+, ZnCl2]
- IC50 (N-mSMase ε; [3]): 32 µM

Compound: sphingomyelin
- Km ([2]; substrate sphingomyelin 6.25 to 100 µM, enzyme 10 ng or less, absence of surfactants): 47 µM
- Km value in the presence of sodium deoxycholate ([2]; substrate sphingomyelin, 0.4, 1.0 and 2.0 mM sodium deoxycholate): could not change

Compound: sodium deoxycholate
- effect on Km value of N-mSMase ε (N-mSMase ε; Lineweaver-Burk analysis in the presence of 0.4, 1.0 and 2.0 mM sodium deoxycholate): could not change

Compound: N[C@@H](CCC(=O)N[C@@H](CS)C(=O)O)C(=O)O [γ-glutaric acid-cystein]
- influence of agents similar to glutathione on N-mSMase ε activity (N-mSMase ε): inhibited; also recorded: reduction in the activity
